Results as given in patent US20040076974A1, “Liver necrosis predictive genes” (priority 2002, published 2004).
Several values for one entry are separate records, joined by “and”; a condition that tells them apart may be missing. Equal entries are not always repeated. Where two headings read alike, the source gives them in different places.

Legend:
[1] = tested on: toxicologically relevant rat genes (rat CT array)
[2] = tested on: Sprague Dawley rats; details: for Liver Necrosis / Score (histopathology liver necrosis severity score): rat, intraperitoneal; for Liver Necrosis: 72 hours after treatment; for Score (histopathology liver necrosis severity score): 72 hours, 1 = not remarkable, 2 and higher increasing severity
How it was run: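 Toxicity calls (necrosis present or absent at 72 h) and histopathology scores were correlated with tissue gene expression from Crl:CD Sprague Dawley rats. Animals, usually 3 treated with compound by i.p. route and 3 given vehicle, were killed at 6, 24 or 72 h and tissues frozen immediately in liquid nitrogen.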

SMILES: Brc1ccccc1 [bromobenzene]
- Ribosomal protein L13A expression (treatment/control) ([1]; 24 h, dose 200, listed as BRB): 2.014 and 1.811 and 2.099
- Ribosomal protein S8 expression (treatment/control) ([1]; 24 h, dose 200, listed as BRB): 2.657 and 2.216 and 2.391
- Ribosomal protein S9 expression (treatment/control) ([1]; 24 h, dose 200, listed as BRB): 1.821 and 1.272 and 1.544
- Ribosomal protein S17 expression (treatment/control) ([1]; 24 h, dose 200, listed as BRB): 2.853 and 2.061 and 2.44
- Superoxide dismutase Mn expression (treatment/control) ([1]; 24 h, dose 200, listed as BRB): 2.675 and 1.611 and 3.075
- T-cell cyclophilin expression (treatment/control) ([1]; 24 h, dose 200, listed as BRB): 1.63 and 1.482 and 1.522
- Thymosin beta-10 expression (treatment/control) ([1]; 24 h, dose 200, listed as BRB): 1.331 and 1.367 and 1.373
- Ubiquitin conjugating enzyme (RAD 6 homologue) expression (treatment/control) ([1]; 24 h, dose 200, listed as BRB): 1.182 and 0.8017 and 1.22
- Uncoupling protein 2 expression (treatment/control) ([1]; 24 h, dose 200, listed as BRB): 0.9873 and 1.103
- c-H-ras expression (treatment/control) ([1]; 24 h, dose 200, listed as BRB): 1.3
- c-jun expression (treatment/control) ([1]; 24 h, dose 200, listed as BRB): 1.819 and 1.494 and 2.242
- p53 expression (treatment/control) ([1]; 24 h, dose 200, listed as BRB): 1.448 and 1.7
- {Ribosomal protein L6} expression (treatment/control) ([1]; 24 h, dose 200, listed as BRB): 2.964 and 2.141 and 2.538
- 14-3-3 zeta expression (treatment/control) ([1]; 24 h, dose 800, listed as BRB): 1.787 and 1.416 and 1.415
- 17-beta hydroxysteroid dehydrogenase, type 2 expression (treatment/control) ([1]; 24 h, dose 800, listed as BRB): 0.2858 and 0.3548 and 0.3188
- Cathepsin L, sequence 2 expression (treatment/control) ([1]; 24 h, dose 800, listed as BRB): 3.444 and 2.804 and 1.941
- Dynamin-1 (D100) expression (treatment/control) ([1]; 24 h, dose 800, listed as BRB): 0.7266 and 0.7238 and 0.7854
- Gadd45 expression (treatment/control) ([1]; 24 h, dose 800, listed as BRB): 3.152 and 4.261 and 2.965
- Gamma-actin, cytoplasmic expression (treatment/control) ([1]; 24 h, dose 800, listed as BRB): 4.159 and 3.751 and 3.387
- Insulin-like growth factor binding protein 1 expression (treatment/control) ([1]; 24 h, dose 800, listed as BRB): 2.338 and 2.353 and 1.62
- L-gulono-gamma-lactone oxidase expression (treatment/control) ([1]; 24 h, dose 800, listed as BRB): 0.3036 and 0.326 and 0.3525
- Matrin F/G expression (treatment/control) ([1]; 24 h, dose 800, listed as BRB): 0.4315 and 0.4295 and 0.6079
- Ornithine decarboxylase expression (treatment/control) ([1]; 24 h, dose 800, listed as BRB): 2.92 and 2.902 and 2.002
- PAR interacting protein expression (treatment/control) ([1]; 24 h, dose 800, listed as BRB): 3.554 and 2.34
- Phase-1 RCT-33 expression (treatment/control) ([1]; 24 h, dose 800, listed as BRB): 0.6976 and 0.5633 and 0.5757
- Phase-1 RCT-36 expression (treatment/control) ([1]; 24 h, dose 800, listed as BRB): 0.7359 and 0.7782
- Phase-1 RCT-38 expression (treatment/control) ([1]; 24 h, dose 800, listed as BRB): 0.4296 and 0.4024 and 0.4536
- Phase-1 RCT-39 expression (treatment/control) ([1]; 24 h, dose 800, listed as BRB): 1.555 and 1.399
- Phase-1 RCT-40 expression (treatment/control) ([1]; 24 h, dose 800, listed as BRB): 0.4257 and 0.4952 and 0.445
- Phase-1 RCT-48 expression (treatment/control) ([1]; 24 h, dose 800, listed as BRB): 0.6158 and 0.633
- Phase-1 RCT-49 expression (treatment/control) ([1]; 24 h, dose 800, listed as BRB): 2.478 and 2.062 and 1.658
- Phase-1 RCT-50 expression (treatment/control) ([1]; 24 h, dose 800, listed as BRB): 2.438 and 2.537 and 1.76
- Phase-1 RCT-68 expression (treatment/control) ([1]; 24 h, dose 800, listed as BRB): 2.05 and 1.892 and 1.519
- Phase-1 RCT-78 expression (treatment/control) ([1]; 24 h, dose 800, listed as BRB): 0.5752 and 0.6922 and 0.6621
- Phase-1 RCT-83 expression (treatment/control) ([1]; 24 h, dose 800, listed as BRB): 0.6019 and 0.6858 and 0.5634
- Phase-1 RCT-89 expression (treatment/control) ([1]; 24 h, dose 800, listed as BRB): 0.4544 and 0.462 and 0.4723
- Phase-1 RCT-92 expression (treatment/control) ([1]; 24 h, dose 800, listed as BRB): 0.4761 and 0.6497 and 0.7002
- Phase-1 RCT-128 expression (treatment/control) ([1]; 24 h, dose 800, listed as BRB): 0.5684 and 0.564 and 0.6
- Phase-1 RCT-144 expression (treatment/control) ([1]; 24 h, dose 800, listed as BRB): 3.092 and 2.983 and 2.106
- Phase-1 RCT-145 expression (treatment/control) ([1]; 24 h, dose 800, listed as BRB): 2.75 and 1.96 and 1.846
- Phase-1 RCT-180 expression (treatment/control) ([1]; 24 h, dose 800, listed as BRB): 1.726
- Phase-1 RCT-182 expression (treatment/control) ([1]; 24 h, dose 800, listed as BRB): 0.5041 and 0.56 and 0.6572
- Phase-1 RCT-207 expression (treatment/control) ([1]; 24 h, dose 800, listed as BRB): 3.826 and 2.754 and 2.464
- Phase-1 RCT-213 expression (treatment/control) ([1]; 24 h, dose 800, listed as BRB): 2.021 and 2.316 and 1.605
- Phase-1 RCT-256 expression (treatment/control) ([1]; 24 h, dose 800, listed as BRB): 0.3752 and 0.4196 and 0.4307
- Phase-1 RCT-258 expression (treatment/control) ([1]; 24 h, dose 800, listed as BRB): 1.65
- Phase-1 RCT-264 expression (treatment/control) ([1]; 24 h, dose 800, listed as BRB): 0.3546 and 0.4999 and 0.3553
- Phase-1 RCT-271 expression (treatment/control) ([1]; 24 h, dose 800, listed as BRB): 0.5889 and 0.6221
- Phase-1 RCT-288 expression (treatment/control) ([1]; 24 h, dose 800, listed as BRB): 0.3511 and 0.3915 and 0.4038
- Phase-1 RCT-291 expression (treatment/control) ([1]; 24 h, dose 800, listed as BRB): 0.6663 and 0.746 and 0.732
- Phase-1 RCT-295 expression (treatment/control) ([1]; 24 h, dose 800, listed as BRB): 1.75 and 2.065 and 1.52
- Phase-1 RCT-296 expression (treatment/control) ([1]; 24 h, dose 800, listed as BRB): 0.3839 and 0.27 and 0.2605
- Ribosomal protein S17 expression (treatment/control) ([1]; 24 h, dose 800, listed as BRB): 2.61 and 2.612 and 1.969
- Senescence marker protein-30 expression (treatment/control) ([1]; 24 h, dose 800, listed as BRB): 0.1397 and 0.1646 and 0.1474
- Zinc finger protein expression (treatment/control) ([1]; 24 h, dose 800, listed as BRB): 3.935 and 2.153 and 2.076
- Paraoxonase 1 expression (treatment/control) ([1]; rat, in vivo): 0.8235 and 0.866 and 0.513
- Liver Toxicity Necrosis Classification ([2]; 72 h, compound-dose group, dose BRB 800, BUS 14, CAD 1, CAR 16): yes
- Liver Toxicity Necrosis Classification ([2]; 72 h, dose 200, animals 2327, 2328, 2329): yes
- Liver Toxicity Necrosis Classification ([2]; 72 h, dose 800, animal 2337): yes
- Liver Toxicity Necrosis Classification ([2]; compound-dose group at 72 h, dose 200, yes = necrosis observed): yes
- Liver Toxicity Necrosis Classification ([2]; compound-dose group at 72 h, dose 800, yes = necrosis observed): yes
- Liver Toxicity Necrosis Classification ([2]; compound-dose group at 72 h, dose 200): yes
- Liver Toxicity Necrosis Classification ([2]; compound-dose group at 72 h, dose 800): yes
- Liver Necrosis ([2]; dose 0.2 ml/kg): Yes
- Score (histopathology liver necrosis severity score) ([2]; dose 0.2 ml/kg): 2
- Liver Necrosis ([2]; dose 0.8 ml/kg): Yes
- Score (histopathology liver necrosis severity score) ([2]; dose 0.8 ml/kg): 4
